Measured values from patent US12404276B2, “Substituted pyrrolo[3,4-c]pyrazoles for treating gastric acid-related diseases” (SHANGHAI MEDICILON INC., priority 2019, dated 2025).

molecular target: T1, H+/K+ ATPase (Oryctolagus cuniculus, UniProt P27112); experiment: Determination of compounds' inhibition of H+/K+ ATPase enzyme activity (malachite green, OD 620 nm); assay type: biochemical; conditions: enzyme extracted from rabbit stomach mucosa; pH 6.5; 500 μM ATP; 37° C.; read-out: IC50(μM) inhibition rate (IC50) of H+/K+ ATPase enzyme activity
T1 construct: The stomach tissue of the rabbit was separated; from tissue; host or cells: rabbit stomach fundus mucosa, microsomal/Ficoll membrane fraction
T1 sequence (P27112 whole entry): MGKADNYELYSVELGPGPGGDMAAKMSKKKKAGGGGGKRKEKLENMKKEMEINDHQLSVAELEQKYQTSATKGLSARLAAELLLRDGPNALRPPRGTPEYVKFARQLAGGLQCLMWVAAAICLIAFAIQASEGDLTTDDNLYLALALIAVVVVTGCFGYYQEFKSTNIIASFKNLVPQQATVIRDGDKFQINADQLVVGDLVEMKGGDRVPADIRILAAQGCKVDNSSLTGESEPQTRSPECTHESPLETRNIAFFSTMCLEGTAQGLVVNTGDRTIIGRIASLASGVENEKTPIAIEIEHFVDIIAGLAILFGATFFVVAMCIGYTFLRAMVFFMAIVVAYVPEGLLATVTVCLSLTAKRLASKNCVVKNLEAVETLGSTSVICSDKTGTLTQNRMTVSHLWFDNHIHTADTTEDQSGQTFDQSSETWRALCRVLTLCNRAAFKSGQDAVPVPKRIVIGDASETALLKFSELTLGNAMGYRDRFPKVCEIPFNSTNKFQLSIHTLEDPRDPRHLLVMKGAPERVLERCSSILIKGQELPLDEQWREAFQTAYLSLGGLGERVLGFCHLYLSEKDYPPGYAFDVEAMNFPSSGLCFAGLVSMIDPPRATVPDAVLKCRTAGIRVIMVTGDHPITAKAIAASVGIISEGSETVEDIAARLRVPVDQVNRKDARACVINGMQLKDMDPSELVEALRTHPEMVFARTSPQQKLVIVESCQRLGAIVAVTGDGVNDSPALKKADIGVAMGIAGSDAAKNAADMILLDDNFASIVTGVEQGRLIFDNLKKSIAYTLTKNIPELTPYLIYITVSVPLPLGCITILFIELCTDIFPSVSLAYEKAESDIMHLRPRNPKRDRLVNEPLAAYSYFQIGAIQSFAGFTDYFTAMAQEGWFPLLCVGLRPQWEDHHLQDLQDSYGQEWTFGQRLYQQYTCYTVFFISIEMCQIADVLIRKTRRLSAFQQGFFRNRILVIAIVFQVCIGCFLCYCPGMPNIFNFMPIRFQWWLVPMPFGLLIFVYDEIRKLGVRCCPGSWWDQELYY
T1 sequence (P18597 whole entry partner): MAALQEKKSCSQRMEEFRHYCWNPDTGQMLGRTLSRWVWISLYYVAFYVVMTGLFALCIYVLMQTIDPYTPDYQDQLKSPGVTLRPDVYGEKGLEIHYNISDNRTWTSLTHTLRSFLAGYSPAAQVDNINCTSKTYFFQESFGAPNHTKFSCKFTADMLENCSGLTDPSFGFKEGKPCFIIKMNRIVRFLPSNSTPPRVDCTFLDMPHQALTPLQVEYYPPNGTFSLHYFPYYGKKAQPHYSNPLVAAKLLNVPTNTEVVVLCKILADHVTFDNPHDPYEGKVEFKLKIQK
Excerpt: Test Example: Determination of Compounds' Inhibition of H+/K+ ATPase Enzyme Activity
The following experiment is used to determine the inhibitory effect of the compound of the present invention on the H+/K+ ATPase enzyme activity.
• Plate reader: SpectraMax M5(MD) • Malachite Green (Sigma Aldrich, 213020-25G) • Ammonium molybdate (Sigma Aldrich, 277908-20G) • ATP (Sigma Aldrich, A1852-1VL). 2. Buffer Preparation • Enzyme working solution: titrating the enzyme, diluting the enzyme with buffer solution 1, and taking 5 μl of the diluted solution into 50 μl reaction system • ATP solution: 100 mM ATP was diluted to 5 mM with no K+ buffer, and 5 μl of the diluted solution was added to the 50 μl reaction system, that is, the final concentration of ATP was 500 μM MLG color development liquid: 0.12% MLG, 7.5% ammonium molybdate, 11% Tween-20 was mixed as 100:25:2, and adding 15 μl of the mixture into each well during detection. • Buffer 1: 50 mM Tris-HCl pH 6.5, 5 mM magnesium chloride (magnesium chloride), 10 μM valinomycin (valinomycin) • Buffer 2: 50 mM Tris-HCl pH 6.5, 5 mM magnesium chloride (magnesium chloride), 10 μM valinomycin (valinomycin), 20 mM KCl • Homogenization buffer: 10 mmol/L Tris-HCl, pH 6.8, 0.25 M sucrose (sucrose), 1 mmol/LEDTA 7.5% Ficoll layering solution: homogenization buffer+7.5% (W/W) (Ficoll 400). 3. Experimental Steps […] Enzyme Extraction • (1) The stomach tissue of the rabbit was separated, and the blood was washed with tap water, food residue. • (2) The fundus portion was thoroughly washed with pre-cooled NaCl solution to remove surface mucus. • (3) The stripped mucosa was filled into a sample bag or a 50 ml centrifuge tube, and quickly freezing in a liquid nitrogen tank. • (4) The tissue was removed, minced with surgical scissors, and a pre-cooled homogenization buffer (4 ml/g tissue) was added and homogenized in a tissue homogenizer for 2 to 10 minutes. • (5) After homogenization, if there were larger tissue particles, they could be removed by centrifugation (600 g, 10 min), and then the supernatant was transferred to a clean centrifuge tube. After centrifugation at 20000 g for 30 minutes, then the supernatant was transferred to a clean centrifuge tube at 100000 g for 90 minutes, and the precipitate was collected. • (6) Resuspending the precipitate with homogenization buffer, blowing uniformly, adding 7.5% Ficoll layering solution at equal ratio, centrifuging at 100000 g for 90 minutes, and collecting the precipitate. • (7) Resuspending the precipitate with homogenization buffer, blowing uniformly, and the protein concentration was measured by Bradford. Freezing in tubes at −80° C. for later use. 3.2. H+/K+ ATPase Activity Experiment • (1) Adding 35 μl of reaction buffer to each experimental well, and then adding […]. • (2) Adding 5 μl buffer 1 containing 10% DMSO to the whole enzyme and buffer well. • (3) Adding 5 μl of 10× compound working solution to the compound well and mixing well. • (4) Adding 5 μl of buffer 1 to the buffer well. • (5) Adding 5 μl of 10× enzyme working solution to the remaining wells, mixing and incubating at 37° C. for 30 minutes. • (6) Adding 5 μl of 10×ATP working solution to all experimental wells, mixing and incubating at 37° C. for 20 min. • (7) Adding 15 μl MLG chromogenic solution to all experimental wells, and uniformly mixing and incubating at room temperature for 5-30 min. • (8) The reading number of 620 nm was detected by an M5 instrument. 4. Data Analysis
The inhibition rate is calculated with the following formula: Inhibition rate (IC50)=[OD (sample well)−OD (full enzyme well containing potassium chloride)]/[(OD (full enzyme well containing potassium chloride)−(OD (full enzyme well without potassium chloride)]×100% 5. Experimental Results

| Structure (SMILES) | IC50 |
| --- | --- |
| CN1Cc2nn(Cc3cccc(C4=CCCOC4)c3)c(-c3ccccc3F)c2C1 [Example 3, 2-(3-(5,6-dihydro-2H-pyran-3-yl)benzyl)-3-(2-fluorophenyl)-5-methyl-2,4,5,6-tetrahydropyrrolo[3,4-C]pyrazole] | 0.197 µM |
| CN1Cc2nn(Cc3cc(Cl)cc(C4=CCOCC4)c3)c(-c3ccccc3F)c2C1 [Example 6, 2-(3-chloro-5-(3,6-dihydro-2H-pyran-4-yl)benzyl)-3-(2-fluorophenyl)-5-methyl-2,4,5,6-tetrahydropyrrolo[3,4-c]pyrazole] | 0.121 µM |
| CN1Cc2nn(Cc3ccc(O)c(C4=CCOCC4)c3)c(-c3ccccc3F)c2C1 [Example 1, 2-(3,6-dihydro-2H-pyran-4-yl)-4-((3-(2-fluorophenyl)-5-methyl-5,6-dihydropyrrolo[3,4-c]pyrazole-2(4H)-yl)methyl)phenol] | 0.233 µM |
| CN1Cc2nn(Cc3cc(O)cc(C4=CCCOC4)c3)c(-c3ccccc3F)c2C1 [Example 4, 3-(5,6-dihydro-2H-pyran-3-yl)-5-((3-(2-fluorophenyl)-5-methyl-5,6-dihydropyrrolo[3,4-c]pyrazole-2(4H)-yl)methyl)phenol] | 0.113 µM |
| CN1Cc2nn(Cc3ccc(F)c(C4=CCOCC4)c3)c(-c3ccccc3F)c2C1 [Example 7, 2-(3-(3,6-dihydro-2H-pyran-4-yl)-4-fluorobenzyl)-3-(2-fluorophenyl)-5-methyl-2,4,5,6-tetrahydropyrrolo[3,4-c]pyrazole] | 0.114 µM |
| CN1Cc2nn(Cc3cccc(C4=CCOCC4)c3)c(-c3ccccc3F)c2C1 [Example 5, 2-(3-(3,6-dihydro-2H-pyran-4-yl)benzyl)-3-(2-fluorophenyl)-5-methyl-2,4,5,6-Tetrahy dropyrrolo[3,4-C]pyrazole] | 0.0883 µM |

Other lines, results leading:

| IC50 | Structure (SMILES) |
| --- | --- |
| 0.0559 µM | CN1Cc2nn(Cc3ccc(O)c(C4=CCCOC4)c3)c(-c3ccccc3F)c2C1 [Example 2, 2-(5,6-dihydro-2H-pyran-3-yl)-4-((3-(2-fluorophenyl)-5-methyl-5,6-dihydropyrrolo[3,4-c]pyrazole-2(4H)-yl)methyl)phenol] |
| 0.0811 µM | CN1Cc2nn(Cc3cc(O)cc(C4=CCOCC4)c3)c(-c3ccccc3F)c2C1 [Example 8, 3-(3,6-dihydro-2H-pyran-4-yl)-5-((3-(2-fluorophenyl)-5-methyl-5,6-dihydropyrrolo[3,4-c]pyrazole-2(4H)-yl)methyl)phenol] |
| 0.769 µM | CN1Cc2nn(Cc3cccc(C4=CCOCC4)c3)c(-c3cccnc3F)c2C1 [Example 10, 2-(3-(3,6-dihydro-2H-pyran-4-yl)benzyl)-3-(2-fluoropyridin-3-yl)-5-methyl-2,4,5,6-tetrahydropyrrolo[3,4-c]pyrazole] |
| 0.208 µM | CN1Cc2nn(Cc3cccc(C4=CCNCC4)c3)c(-c3ccccc3F)c2C1 [Example 9, 3-(2-fluorophenyl)-5-methyl-2-(3-(1,2,3,6-tetrahydropyridin-4-yl)benzyl)-2,4,5,6-tetrahydropyrrolo[3,4-C]pyrazole] |
